This passage reports IC50 and EC50 results from patent US9926304B2, “1-(arylmethyl)quinazoline-2,4(1H,3H)-diones as PARP inhibitors and the use thereof” (Impact Therapeutics, Inc., priority 2011, dated 2018).

Test [1] relates to SW620 human colorectal cancer cells. Briefly: MTT based cell viability assay: potentiation of the growth inhibiting activity of MMS. Particulars: Homo sapiens, SW-620, 120 h, read-out: IC50 (nM), potentiation of the growth inhibiting activity of MMS, SW620 cells, 1.7 μg/ml MMS, 5 days (120 hours), MTT.
The test system of test [2] is Human breast cancer cell line T47D. Briefly: Cell based caspase-3 activity assay: potentiation of MMS induced apoptosis. Particulars: Homo sapiens, T47D, 24 h, T47D cells, 11.1 μg/ml MMS, 24 hours, intracellular caspase-3 activity; read-out: EC50 (nM), potentiation of the apoptosis inducing activity of MMS. In a few lines: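 T47D cells were exposed for 24 h to compound plus a minimally apoptotic MMS dose (medium containing 11.1 μg/ml MMS). Lysates were incubated 3 h at 37 °C with (Ac-DEVD)2-R110 caspase-3 substrate (20 μM in added buffer) and read at ex 496/em 520 nm. EC50 came from a sigmoidal fit of RFU versus log concentration.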

The test system of test [3] is BRCA-2 deficient CAPAN-1 human pancreatic cancer cells. Briefly: MTT based cell viability assay: growth inhibition of BRCA-2 deficient CAPAN-1 cells. As to conditions: 240 h, compound alone, 10 day assay. An excerpt:
Determination of the cell growth inhibiting activity of 1-(3-(4-(pyrimidin-2-yl)piperazine-1-carbonyl)benzyl)quinazoline-2,4(1H,3H)-dione and analogs on BRCA-2 deficient CAPAN-1 pancreatic duck cancer cells using a MTT based cell viability assay
BRCA-deficient cancer cells are sensitive to PARP inhibition. In the presence of PARP inhibitors, BRCA-deficient cancer cells could not grow and eventually will lead to death of cells. BRCA-2 deficient CAPAN-1 human pancreatic cancer cells were used to test the growth inhibiting activity of substituted 1-(arylmethyl)quinazoline-2,4(1H,3H)-diones. Briefly, CAPAN-1 cells are grown and maintained in IMEM medium supplemented with 20% FBS. The assay takes 10 days to finish. On day 1, 6000 CAPAN-1 cells are seeded to each well of a 96-well plate. The cells are incubated at 37° C. in a cell culture incubator overnight. In the next day, serial dilutions of compounds to be tested and reference compound (AZD2281) were prepared with a 1:3 and 1:10 fashion in DMSO. Ten-fold compound solutions were made by mixing 10 μl DMSO serial dilution solutions with 90 μl fresh growth medium. The cell culture medium was removed and 180 μl fresh media with FBS and 20 μl of compound solutions were added to each well. The final concentration of DMSO was 1%. Cells were then returned to the CO2 cell culture incubator and incubated at 37° C. for two days (day 3 and day 4). On day 5, the same procedure as what was done on day 2 was repeated. Cell culture medium was removed and fresh medium containing serial dilutions of compounds or reference compounds were added. Cells were returned to the CO2 cell culture incubator and incubated for two more days. On day 8, same procedure was repeated again and fresh medium containing the testing compounds or reference compounds were added and incubated for an additional 2 days. On day 10, 20 μl of MTT reagent (5 mg/ml) was added to each well of the cell culture plate and incubated for 4 h. The cell culture media was removed and 100 μl DMSO was added to each well. The 96-well cell culture plates were shaked horizontally for 10 min and readed in a Varioskan Flash plate reader (Thermo Fisher Scientific) at 520 and 690 nm. The obtained 520 nm absorbance readings subtracting corresponding 690 nm reading were analyzed using a commercial graphic software (GraphPad Prism 5) and plotted against the Log scale of the compound concentrations.

A value given as a limit tells only on which side of the number the result lay.

By EC50 is commonly meant the concentration at which the effect is half-maximal. Take `O=C(c1cccc(Cn2c(=O)[nH]c(=O)c3ccccc32)n1)N1CCN(c2ccccn2)CC1` [Example 70, 1-((2-(4-(Pyridin-2-yl)piperazine-1-carbonyl)pyridin-6-yl)methyl)quinazoline-2,4(1H,3H)-dione]: the results for the IC50 in test [1] and in test [3] were 136 nM and 339 nM, respectively. In addition, the EC50 in test [2] was 34 nM.

Take `O=C(c1cc(Cn2c(=O)[nH]c(=O)c3c(F)cccc32)ccc1F)N1CCN(C2CCCCC2)CC1` [Example 212, 1-(3-(4-Cyclohexylpiperazine-1-carbonyl)-4-fluorobenzyl)-5-fluoroquinazoline-2,4(1H,3H)-dione]: the IC50 is 19 nM in test [1] and above 10000 nM in test [3]. Further, the EC50 in test [2] stood at 45 nM.

`O=C(c1cccc(Cn2c(=O)[nH]c(=O)c3cc(Cl)ccc32)c1)N1CCN(C(=O)C2CCCC2)CC1` [Example 112, 6-Chloro-1-(3-(4-(cyclopentylcarbonyl)piperazine-1-carbonyl)benzyl)quinazoline-2,4(1H,3H)-dione]: the IC50 in test [1] was 14 nM; in test [3] it was 767 nM. Besides, the concentration giving a half-maximal response (EC50) in test [2] is 2.9 nM.

Consider `O=C(c1cc(Cn2c(=O)[nH]c(=O)c3ccccc32)ccc1F)N1CCN(C(=O)C2CC2)CC1` [Example 40, 1-(3-(4-(Cyclopropylcarbonyl)piperazine-1-carbonyl)-4-fluorobenzyl)quinazoline-2,4(1H,3H)-dione], for which the IC50 in test [1] amounted to 182 nM; in test [3], 1740 nM. Besides, the EC50 in test [2] was determined as 29 nM.

Consider `O=C(c1ccco1)N1CCN(C(=O)c2cc(Cn3c(=O)[nH]c(=O)c4c(F)cccc43)ccc2F)CC1` [Example 172, 5-Fluoro-1-(4-fluoro-3-(4-(furan-2-carbonyl)piperazine-1-carbonyl)benzyl)quinazoline-2,4(1H,3H)-dione], for which the IC50 in test [1] amounted to 9.5 nM; in test [3], 389 nM. Moreover, the EC50 in test [2] stood at 3.2 nM.

Take `O=C(c1cccs1)N1CCN(C(=O)c2cc(Cn3c(=O)[nH]c(=O)c4c(F)cccc43)ccc2F)CC1` [Example 136, 5-Fluoro-1-(4-fluoro-3-(4-(thiophene-2-carbonyl)piperazine-1-carbonyl)benzyl)quinazoline-2,4(1H,3H)-dione]: the IC50 worked out at 7.1 nM in test [1] and 40 nM in test [3]. The EC50 in test [2] came to 3.2 nM.

For the molecule `O=C(c1cccc(Cn2c(=O)[nH]c(=O)c3c(Cl)cccc32)c1)N1CCN(c2ncccn2)CC1` [Example 100, 5-Chloro-1-(3-(4-(pyrimidin-2-yl)piperazine-1-carbonyl)benzyl)quinazoline-2,4(1H,3H)-dione], the IC50 in test [1] was 202 nM; in test [3], 312 nM. Further, the EC50 in test [2] stood at 70 nM.

Consider `O=C(c1cc(Cn2c(=O)[nH]c(=O)c3ccccc32)ccc1F)N1CCN(c2ccccn2)CC1` [Example 24, 1-(4-Fluoro-3-(4-(pyridin-2-yl)piperazine-1-carbonyl)benzyl)quinazoline-2,4(1H,3H)-dione], for which the figures for the IC50 in test [1] and in test [3] were 26 nM and 735 nM, respectively. The EC50 in test [2] was 20 nM.

For the molecule `O=C(c1cc(Cn2c(=O)[nH]c(=O)c3ccccc32)ccc1F)N1CCN(c2cnccn2)CC1` [Example 42, 1-(4-Fluoro-3-(4-(pyrazin-2-yl)piperazine-1-carbonyl)benzyl)quinazoline-2,4(1H,3H)-dione], the IC50 in test [1] stood at 78 nM; in test [3] it was 2540 nM. Moreover, in test [2], the EC50 amounted to 11 nM.

Take `O=C(c1cccc(Cn2c(=O)[nH]c(=O)c3ccccc32)c1)N1CCN(C(=O)C2CCCCC2)CC1` [Example 26, 1-(3-(4-(Cyclohexylcarbonyl)piperazine-1-carbonyl)benzyl)quinazoline-2,4(1H,3H)-dione]: the IC50 in test [1] was 149 nM; in test [3], 400 nM. In addition, the EC50 in test [2] amounted to 20 nM.

With `O=C(c1ccc(F)c(Cn2c(=O)[nH]c(=O)c3cc(Cl)ccc32)c1)N1CCN(c2ncccn2)CC1` [Example 123, 6-Chloro-1-(6-fluoro-3-(4-(pyrimidin-2-yl)piperazine-1-carbonyl)benzyl)quinazoline-2,4(1H,3H)-dione], the results for the IC50 in test [1] and in test [3] were 15 nM and 111 nM, respectively. Further, the EC50 in test [2] stood at 11 nM.

With `O=C(c1cc(Cn2c(=O)[nH]c(=O)c3c(Cl)cccc32)ccc1F)N1CCN(C(=O)C2CCC2)CC1` [Example 168, 5-Chloro-1-(3-(4-(cyclobutylcarbonyl)piperazine-1-carbonyl)-4-fluorobenzyl)quinazoline-2,4(1H,3H)-dione], the IC50 in test [1] turned out to be 15 nM; in test [3], 1460 nM. Also, the EC50 in test [2] was 3.8 nM.

In the case of `O=C(c1cccc(Cn2c(=O)[nH]c(=O)c3ccccc32)c1)N1CCN(c2cnccn2)CC1` [Example 20, 1-(3-(4-(Pyrazin-2-yl)piperazine-1-carbonyl)benzyl)quinazoline-2,4(1H,3H)-dione], the IC50 came out at 391 nM in test [1] and 4940 nM in test [3]. Also, in test [2], the EC50 amounted to 139 nM.

On to `O=C(c1cccc(Cn2c(=O)[nH]c(=O)c3ccc(Cl)cc32)c1)N1CCN(c2ncccn2)CC1` [Example 161, 7-Chloro-1-(3-(4-(pyrimidin-2-yl)piperazine-1-carbonyl)benzyl)quinazoline-2,4(1H,3H)-dione], for which the IC50 in test [1] was 506 nM; in test [3] it was 3550 nM. The concentration giving a half-maximal response (EC50) in test [2] came out at 405 nM.

Take `O=C(c1cccc(Cn2c(=O)[nH]c(=O)c3cc(F)ccc32)c1)N1CCN(C(=O)C2CCCCC2)CC1` [Example 142, 1-(3-(4-(Cyclohexylcarbonyl)piperazine-1-carbonyl)benzyl)-6-fluoroquinazoline-2,4(1H,3H)-dione]: the results for the IC50 in test [1] and in test [3] were 22 nM and 223 nM, respectively. In addition, the EC50 in test [2] came out at 3.8 nM.

Take `Cc1ccc2c(c1)c(=O)[nH]c(=O)n2Cc1cccc(C(=O)N2CCN(c3ncccn3)CC2)c1` [Example 81, 6-Methyl-1-(3-(4-(pyrimidin-2-yl)piperazine-1-carbonyl)benzyl)quinazoline-2,4(1H,3H)-dione]: the IC50 came out at 99 nM in test [1] and 421 nM in test [3]. In addition, the EC50 in test [2] was 63 nM.

Turning to `O=C(c1ccc(F)c(Cn2c(=O)[nH]c(=O)c3cc(Cl)ccc32)c1)N1CCN(C(=O)C2CCCC2)CC1` [Example 124, 6-Chloro-1-(3-(4-(cyclopentylcarbonyl)piperazine-1-carbonyl)-6-fluorobenzyl)quinazoline-2,4(1H,3H)-dione], the IC50 in test [1] came to 9.9 nM; in test [3] it was 137 nM. Also, in test [2], the EC50 worked out at 3.8 nM.

In the case of `Cc1ccc2c(c1)c(=O)[nH]c(=O)n2Cc1ccc(F)c(C(=O)N2CCN(c3ncccn3)CC2)c1` [Example 83, 1-(4-Fluoro-3-(4-(pyrimidin-2-yl)piperazine-1-carbonyl)benzyl)-6-methylquinazoline-2,4(1H,3H)-dione], the IC50 is 72 nM in test [1] and 746 nM in test [3]. Besides, in test [2], the EC50 turned out to be 21 nM.

Take `O=C(c1ccco1)N1CCN(C(=O)c2cc(Cn3c(=O)[nH]c(=O)c4cc(F)ccc43)ccc2F)CC1` [Example 185, 6-Fluoro-1-(4-fluoro-3-(4-(furan-2-carbonyl)piperazine-1-carbonyl)benzyl)quinazoline-2,4(1H,3H)-dione]: the IC50 in test [1] was 6.7 nM; in test [3] it was 358 nM. For the same molecule, the EC50 in test [2] was 2.1 nM.

For `O=C(c1cc(Cn2c(=O)[nH]c(=O)c3cc(F)ccc32)ccc1F)N1CCN(c2ccccn2)CC1` [Example 145, 6-Fluoro-1-(4-fluoro-3-(4-(pyridin-2-yl)piperazine-1-carbonyl)benzyl)quinazoline-2,4(1H,3H)-dione], the values for the IC50 in test [1] and in test [3] were 12 nM and 146 nM, respectively. Further, the EC50 in test [2] is 6.5 nM.

For `O=C(c1cc(Cn2c(=O)[nH]c(=O)c3c(F)cccc32)ccc1F)N1CCN(C(=O)C2CCCCC2)CC1` [Example 134, 1-(3-(4-(Cyclohexylcarbonyl)piperazine-1-carbonyl)-4-fluorobenzyl)-5-fluoroquinazoline-2,4(1H,3H)-dione], the IC50 in test [1] was 5.8 nM; in test [3] it was 45 nM. Further, in test [2], the EC50 stood at 4.7 nM.
